System: BALB/c female mouse
Assay: Immune response to individual peptide: mouse immunization, then indirect solid-phase immunoenzymatic assay (ELISA) of serum antibodies to peptide
Assay type: in vivo
Details: BALB/c mice, i.p. 100 μg peptide+Str-HRP with Freund's adjuvant; for Immunogenicity group: serum day 38, ELISA; for Overall ranking of antigenicity / Antigenicity compared to best ranking peptide (Average value calculated by removing outlier which exceeded 1 SD value) / Antigenicity compared to best ranking peptide (Median value): serum day 38, ELISA A450; for Antigenicity compared to best ranking peptide (Average value calculated by removing outlier which exceeded 1 SD value): average without outliers >1 SD

T-Y-K-W-E-T-F-L-T-R-E-M-P-A (TYKWETFLTREMPA; Mycobacterium Tuberculosis Synthetic Peptide) [SEQ ID 5, oligopeptide from MT Antigen 85 (Ag 85)]
Immunogenicity group: intermediate immunogenicity
Overall ranking of antigenicity: 9
Antigenicity compared to best ranking peptide (Average value calculated by removing outlier which exceeded 1 SD value): 21.8
Antigenicity compared to best ranking peptide (Median value): 47.4

S-M-G-R-D-I-K-V-Q-F-Q-G (SMGRDIKVQFQG; Mycobacterium Tuberculosis Synthetic Peptide) [SEQ ID 3, oligopeptide from MT Antigen 85 (Ag 85)]
Immunogenicity group: intermediate immunogenicity
Overall ranking of antigenicity: 11
Antigenicity compared to best ranking peptide (Average value calculated by removing outlier which exceeded 1 SD value): 26.5
Antigenicity compared to best ranking peptide (Median value): 35.8

A-G-R-R-C-L-D-A-G (AGRRCLDAG; Mycobacterium Tuberculosis Synthetic Peptide) [SEQ ID 11, oligopeptide from MT Cytotoxin/Hemolysin]
Immunogenicity group: intermediate immunogenicity
Overall ranking of antigenicity: 6
Antigenicity compared to best ranking peptide (Average value calculated by removing outlier which exceeded 1 SD value): 16.5
Antigenicity compared to best ranking peptide (Median value): 34.2

G-D-N-I-P-A-K-F-L-E-G-T-L-R-T (GDNIPAKFLEGTLRT; Mycobacterium Tuberculosis Synthetic Peptide) [SEQ ID 7, oligopeptide from MT Antigen 85 (Ag 85)]
Immunogenicity group: intermediate immunogenicity
Overall ranking of antigenicity: 7
Antigenicity compared to best ranking peptide (Average value calculated by removing outlier which exceeded 1 SD value): 11.6
Antigenicity compared to best ranking peptide (Median value): 73.5

T-D-T-R-S-R-V-E-E-S-R-A-R-L [SEQ ID 1]
Immunogenicity group: intermediate immunogenicity
Overall ranking of antigenicity: 8
Antigenicity compared to best ranking peptide (Average value calculated by removing outlier which exceeded 1 SD value): 44.5
Antigenicity compared to best ranking peptide (Median value): 38.1

L-R-A-Q-D-D-Y-N-G-W-D-I (LRAQDDYNGWDI; Mycobacterium Tuberculosis Synthetic Peptide) [SEQ ID 4, oligopeptide from MT Antigen 85 (Ag 85)]
Immunogenicity group: relatively strong immunogenicity
Overall ranking of antigenicity: 2
Antigenicity compared to best ranking peptide (Average value calculated by removing outlier which exceeded 1 SD value): 1.4
Antigenicity compared to best ranking peptide (Median value): 1.0

S-R-Y-N-E-L-V-E-R-G-E-A [SEQ ID 2]
Immunogenicity group: intermediate immunogenicity
Overall ranking of antigenicity: 4
Antigenicity compared to best ranking peptide (Average value calculated by removing outlier which exceeded 1 SD value): 10.6
Antigenicity compared to best ranking peptide (Median value): 15.0

S-D-P-A-W-K-R-N-D-P-M-V-Q-I-P-R-L (SDPAWKRNDPMVQIPRL; Mycobacterium Tuberculosis Synthetic Peptide) [SEQ ID 6, oligopeptide from MT Antigen 85 (Ag 85)]
Immunogenicity group: relatively strong immunogenicity
Overall ranking of antigenicity: 1
Antigenicity compared to best ranking peptide (Average value calculated by removing outlier which exceeded 1 SD value): 1.0
Antigenicity compared to best ranking peptide (Median value): 1.1

V-Y-E-S-T-E-T-T-E-R-P-E-H-H-E-F-K-Q-A (VYESTETTERPEHHEFKQA; Mycobacterium Tuberculosis Synthetic Peptide) [SEQ ID 8, oligopeptide from MT Exported Repetitive Protein (Erp)]
Immunogenicity group: relatively strong immunogenicity
Overall ranking of antigenicity: 3
Antigenicity compared to best ranking peptide (Average value calculated by removing outlier which exceeded 1 SD value): 4.6
Antigenicity compared to best ranking peptide (Median value): 4.5

N-E-L-G-A-S-Q-A-I-D-L-L-K-G-V (NELGASQAIDLLKGV; Mycobacterium Tuberculosis Synthetic Peptide) [SEQ ID 9, oligopeptide from MT Exported Repetitive Protein (Erp)]
Immunogenicity group: intermediate immunogenicity
Overall ranking of antigenicity: 5
Antigenicity compared to best ranking peptide (Average value calculated by removing outlier which exceeded 1 SD value): 16.1
Antigenicity compared to best ranking peptide (Median value): 22.3

T-D-S-E-R-A-W-V-S-R-G-A (TDSERAWVSRGA; Mycobacterium Tuberculosis Synthetic Peptide) [SEQ ID 10, oligopeptide from MT Cytotoxin/Hemolysin]
Immunogenicity group: intermediate immunogenicity
Overall ranking of antigenicity: 10
Antigenicity compared to best ranking peptide (Average value calculated by removing outlier which exceeded 1 SD value): 27.6
Antigenicity compared to best ranking peptide (Median value): 24.5

— patent US20120321656A1, “OLIGOPEPTIDES AND THEIR USE FOR TREATING INFECTIOUS DISEASES” (priority 2011, published 2012)
